# Patent US11712443B2, “17α-monoesters and 17α,21-diesters of cortexolone for use in the treatment of tumors” (COSMO TECHNOLOGIES LTD., priority 2014, dated 2023)
# Where two headings read alike, the source gives them in different places.
# Assays:
# [1] = test system: HT29; test: In vitro proliferation, larger cancer cell line panel; conditions: HT29
# [2] = test system: HT29; test: MTT colorimetric assay, 72 h; type: cell-based; conditions: for Inhibition (%) on HT29: 72 h, MTT; for Therapeutic Index (TI), Resting PBMC: IC50 resting PBMC / IC50 HT29; for Therapeutic Index (TI), Stimulated PBMC: IC50 stimulated PBMC / IC50 HT29
# Experimental: The experiment was performed to test and define anticancer activity in vitro of Cortexolone 17α-benzoate and cortexolone 17α-valerate-21-propionate on cell lines representatives of epithelial intestinal tumors, namely HT29. The experiment method consisted in: • 1. Monolayer HT-29 cells were plated in: 96-wells plates at the density of 2×10^4 cells/mL. The cells plated were kept at 37° C. in 5% CO2 and left to attach for 24 h. • 2. […] After 72 h of treatment, the MTT colorimetric assay was performed.
# [3] = test system: MiaPaca-2 pancreatic tumor xenograft; test: Human pancreatic tumor xenograft in nude mice, subcutaneous treatment; type: in vivo
# Experimental: The test was carried out comparing the anti-tumor activity of cortexolone 17α-benzoate at two different dosages (8.0 mg/kg, corresponding approximately at 230 μM, and 40 mg/kg, corresponding approximately at 1150 μM), versus the vehicle (i.e. 0.4% (v/v) tween 80 and 0.5% (w/v) carboxymethylcellulose in normal saline) and versus the comparator Cyproterone Acetate at two different dosages (7.4 mg/kg and 37 mg/kg).
# 1×10^6 MiaPaca-2 cells suspended in matrigel were subcutaneously injected into 6 week old athymic nude mice.
# The treatment with the tested compounds, with the vehicle and with the comparative compound, was initiated after the tumor volume has reached 50 mm3 after transplantation. All compounds were injected 100 μL/mouse subcutaneously of low dose solution (approximately 230 μM) or 100 μL/mouse of high dose solution (approximately 1150 μM) of cortexolone 17α-benzoate, vehicle and cyproterone acetate, respectively. Compounds and controls were administered subcutaneously daily for 28 days.
# Tumors were measured every 4 days with a digital caliper.
# The results are plotted in FIG. 1 as average change in tumor volume relative to the start of treatment. Tumor volume was calculated according to the formula 0.5236(r1)^2(r2) where r1<r2.
# The test was carried out comparing the anti-tumor activity of cortexolone 17α-valerate-21-propionate (CB-03-10) at two different dosages (approximately 8.6 mg/kg and 43 mg/kg) versus the vehicle (i.e. 0.4% (v/v) tween 80 and 0.5% (w/v) carboxymethylcellulose in normal saline) and versus the comparator Cyproterone Acetate at two different dosages (7.4 mg/kg and 37 mg/kg).
# The treatment with the tested compound, with the vehicle and with the comparative compound was initiated after the tumor has reached a volume of 50 mm3 after implantation, injecting subcutaneously 100 μL/mouse of low dose solution (approximately 230 μM) or 100 μL/mouse of high dose solution (approximately 1150 μM) of cortexolone 17α-valerate-21-propionate (CB-03-10), vehicle and cyproterone acetate, respectively. Compounds and controls were administered subcutaneously daily for 28 days.
# The results are plotted in FIG. 2 as average change in tumor volume relative to the start of treatment. Tumor volume was calculated according to the formula 0.5236(r1)^2(r2) where r1<r2.
# CPA a well-known anti-androgen was used as control. Briefly 1×10^6 MiaPaca2 cells suspended in matrigel were subcutaneously (SC) injected into 6 week old male athymic nude mice. Tumors were measured every 4 days with a digital caliper. Tumor volume was calculated according to the formula: 0.5236(r1)2(r2) where r1<r2. Treatment with CB-03-10 and controls compounds was initiated after the tumor had reached 50 mm3. Compounds diluted in DMSO/2-hydroxypropyl b-cyclodextrin (vehicle) were injected subcutaneously (SC) daily (100 μL/mouse) at the concentration of 40 mg/Kg daily for 28 consecutive days.
# [4] = test system: BxPC3; test: In vitro proliferation, larger cancer cell line panel
# [5] = test system: Panc1; test: ATP-dependent proliferation/viability assay (Cell Titer Glo), 3 days; conditions: for TI on Resting PBMC: IC50 resting PBMC / IC50 Panc1; for TI on Stimulated PBMC: IC50 stimulated PBMC / IC50 Panc1
# [6] = test system: MiaPaca2; test: as above; conditions: for TI on Resting PBMC: IC50 resting PBMC / IC50 MiaPaca2; for TI on Stimulated PBMC: IC50 stimulated PBMC / IC50 MiaPaca2
# [7] = test system: stimulated PBMC; test: IC50 on stimulated PBMC (actively dividing cells)
# Experimental: (§3) The IC^50 in PBMC were tested in 2 different activation status:
# stimulated—actively dividing cells
# (§4) IC50 of the compounds was determined on fresh cells isolated from human blood (PBMC). The compounds toxicity was determined as follow: Therapeutic Index=Safety/Potency=IC50 stimulated PBMC_/IC50 cancer cell
# [8] = test system: resting PBMC; test: IC50 on resting PBMC (quiescent, non-dividing cells); type: cell-based, human
# Experimental: The ratio from IC50 of the compounds on peripheral blood mononuclear cells (PBMC) and the IC50 on cancer cell lines constitute the Therapeutic Index and show what is the safer compound to be tested.
# as §3
# resting—quiescent, non-dividing cells
# as §4
# [9] = test system: LNCaP; test: ATP-dependent proliferation/viability assay (Cell Titer Glo), 3 days; conditions: LNCaP
# Experimental: (§1) The experiment was performed to test and to define the antitumor activity in vitro of cortexolone 17α-benzoate on LNCaP (AR+) and PC3 (AR^−), representative of Prostatic cancer cell lines with Androgen Receptor (AR) positive or negative expression, respectively. The experimental method consisted of: • 1. […] After 24 hours, 10 nM DHT (dihydrotestosterone) with or without anti-androgen compounds, or DMSO vehicle (negative control) was added to the cultures. • 3.
# (§2) The experiment was performed to test and to define antitumor activity in vitro of cortexolone 17α-valerate-21-propionate (CB-03-10) on LNCaP (AR+) and PC3 (AR^−), representative of Prostatic cancer cell lines with AR positive or negative expression, respectively. The experimental method consisted of: • 1. […] After 24 hours, 10 nM DHT (dihydrotestosterone) with or without anti-androgen compounds, or DMSO vehicle (negative control) was added to the cultures. • 3.
# [10] = test system: PC3; test: as above; conditions: PC3
# Experimental: as §1, §2
# [11] = test system: MCF7; test: In vitro proliferation / cytotoxic assay on breast cancer cells (cell titer glo); conditions: MCF7
# Experimental: For the cytotoxic assay: cells seeded in 96 well flat bottom culture plates in media containing charcoal stripped serum. After 24 hours test compounds were added to the cells. DMSO was used as the vehicle negative control and RU486 as the positive control. After 72 hours incubation cell were harvested, lysed and viability determined using the cell titer glow assay for viability.
# [12] = Experiment 1, 0 = higher toxicity in PBMC
compound,measurement,setting,value
"C[C@]12CCC(=O)C=C1CC[C@@H]1[C@@H]2CC[C@@]2(C)[C@H]1CC[C@]2(OC(=O)c1ccccc1)C(=O)CO [CB-03-06, cortexolone 17α-benzoate]",Therapeutic Index = IC50 resting PBMC/IC50 cancer cell,[1]; Table IV,6
same,Therapeutic Index = IC50 stimulated PBMC/IC50 cancer cell,[1]; Table VII,6
same,IC50,"[1]; read-out: In vitro proliferation IC50, Table IV",10 µM
same,Inhibition (%) on HT29,[2]; 0.8 micromolar,−1.55%
same,Inhibition (%) on HT29,[2]; 4 micromolar,20.40%
same,Inhibition (%) on HT29,[2]; 20 micromolar,53.60%
same,Inhibition (%) on HT29,[2]; 100 micromolar,92.24%
same,Inhibition (%) on HT29,[2]; 500 micromolar,92.31%
same,"Therapeutic Index (TI), Resting PBMC",[2]; Example 9 Experiment 1,6
same,"Therapeutic Index (TI), Resting PBMC",[2]; Example 9 Experiment 2,5
same,"Therapeutic Index (TI), Stimulated PBMC",[2]; Example 9 Experiment 1,7
same,"Therapeutic Index (TI), Stimulated PBMC",[2]; Example 9 Experiment 2,6
same,pancreatic tumor size increase relative to size when treatment was initiated,"[3]; Example 5, high dose 40 mg/kg (approximately 1150 μM, 100 μL/mouse) SC daily 28 days",less than 5 fold
same,in vivo antitumor activity compared with Cyproterone Acetate,"[3]; Examples 5 and 6, FIG. 3, same animal model",antitumor activity higher than Cyproterone Acetate
same,Therapeutic Index = IC50 resting PBMC/IC50 cancer cell,[4]; Table IV,3
same,Therapeutic Index = IC50 stimulated PBMC/IC50 cancer cell,[4]; Table VII,3
same,TI on Resting PBMC,[5]; [12],4
same,TI on Resting PBMC,[5]; Experiment 2,3
same,TI on Stimulated PBMC,"[5]; Experiment 1, 0 = higher toxicity in PBMC than in the cancer cell lines",5
same,TI on Stimulated PBMC,[5]; Experiment 2,3
same,Therapeutic Index = IC50 resting PBMC/IC50 cancer cell,"[5]; Panc1, Table IV",3
same,Therapeutic Index = IC50 stimulated PBMC/IC50 cancer cell,"[5]; Panc1, Table VII",3
same,TI on Resting PBMC,[6]; [12],6
same,TI on Resting PBMC,[6]; Experiment 2,4
same,TI on Stimulated PBMC,[6]; [12],7
same,TI on Stimulated PBMC,[6]; Experiment 2,5
same,Therapeutic Index = IC50 resting PBMC/IC50 cancer cell,"[6]; MiaPaca2, Table IV",5
same,Therapeutic Index = IC50 stimulated PBMC/IC50 cancer cell,"[6]; MiaPaca2, Table VII",5
same,Therapeutic Index = IC50 resting PBMC/IC50 cancer cell,"[7]; PBMC Stim, healthy lymphocyte, Table IV",1
same,"Therapeutic Index = IC50 stimulated PBMC/IC50 cancer cell, AVERAGE","[7]; average across the 7 cancer cell lines, Table VII",5
same,IC50,"[7]; read-out: IC50 on Stimulated PBMC, Example 7 Experiment 1",113 µM
same,IC50,"[7]; read-out: IC50 on Stimulated PBMC, Example 7 Experiment 2",97 µM
same,IC50,"[7]; read-out: In vitro proliferation IC50, PBMC STIMULATED, healthy lymphocyte, Table IV",97 µM
same,IC50,[8]; Example 7 Experiment 1,100 µM
same,IC50,[8]; Example 7 Experiment 2,85 µM
same,Therapeutic Index = IC50 resting PBMC/IC50 cancer cell,[9]; Table IV,8
same,Therapeutic Index = IC50 stimulated PBMC/IC50 cancer cell,[9]; Table VII,8
same,Therapeutic Index = IC50 resting PBMC/IC50 cancer cell,[10]; Table IV,3
same,Therapeutic Index = IC50 stimulated PBMC/IC50 cancer cell,[10]; Table VII,3
same,Therapeutic Index = IC50 resting PBMC/IC50 cancer cell,[11]; Table IV,4
same,Therapeutic Index = IC50 stimulated PBMC/IC50 cancer cell,[11]; Table VII,4
